Drawing on patent US20230293517A1, “ANTAGONIST COMPOUNDS” (AdoRx Therapeutics Limited, priority 2020, published 2023), this text covers Ki and IC50 for 7 compounds.

SMILES strings stand for the structures.

Experiment [1] addresses human Adenosine A1 receptor (Homo sapiens (Human), UniProt P30542). Briefly: Adenosine receptor TR-FRET binding assay (A1). The following applies: inhibition of binding of 100 nM CA200645, CHO cell membranes. The procedure, abridged: (§1)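 Competition binding measured by TR-FRET between terbium-labelled receptors (CHO membranes, human) and fluorescent XAC, CA200645, used at 30 nM for A2b and 100 nM elsewhere. Room temperature, 2 h. Reported as Ki (Cheng–Prusoff).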
Background: Time-resolved FRET reads energy transfer from a long-lived donor to a nearby acceptor.

Experiment [2] has as its target human Adenosine A2a receptor (Homo sapiens (Human), UniProt P29274). Briefly: Adenosine receptor TR-FRET binding assay (A2a). The settings on record: inhibition of binding of 100 nM CA200645, CHO cell membranes. The procedure, abridged: as §1
Experiment [3] deals with human Adenosine A2b receptor (Homo sapiens (Human), UniProt P29275). In words: Adenosine receptor TR-FRET binding assay (A2b). The following applies: TR-FRET, inhibition of binding of 30 nM CA200645, CHO cell membranes. The method in brief:
as §1

The target of experiment [4] is human Adenosine A3 receptor (Homo sapiens (Human), UniProt P0DMS8). In words: Adenosine receptor TR-FRET binding assay (A3). The settings on record: inhibition of binding of 100 nM CA200645, CHO cell membranes. The procedure, abridged: as §1
Chain of human Adenosine A3 receptor (P0DMS8 whole entry): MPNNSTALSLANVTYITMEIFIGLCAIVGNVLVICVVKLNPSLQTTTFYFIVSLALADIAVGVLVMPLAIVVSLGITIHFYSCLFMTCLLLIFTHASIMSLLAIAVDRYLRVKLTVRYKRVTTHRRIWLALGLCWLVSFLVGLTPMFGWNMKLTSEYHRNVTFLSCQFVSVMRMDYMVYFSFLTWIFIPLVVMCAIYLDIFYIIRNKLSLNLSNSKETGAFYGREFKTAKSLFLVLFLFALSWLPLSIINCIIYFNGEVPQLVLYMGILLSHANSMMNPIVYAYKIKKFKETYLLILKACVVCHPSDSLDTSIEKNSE
The next experiment relates to human PBMCs. Briefly: CD3/CD28 stimulated IL-2 release NECA reversal assay in human PBMCs. The settings on record: PBMC, 1 uM NECA, 24 hours, IL-2 in culture supernatant. Type of experiment: cell-based. The method in brief:
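PBMCs from citrated healthy-donor blood plated at 50,000 cells/well on 1 ug/ml CD3 antibody with 1 ug/ml CD28 antibody, 1 uM NECA and 0.003-10 μM antagonist (final), 24 h at 37° C. Supernatant IL-2 measured by MSD immunoassay; % inhibition set against no-NECA control wells as 100%.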

Experiment [5] deals with CD8+T cells in human whole blood. In words: Measurement of pCREB in CD8+T cells in human whole blood. The format is cell-based. The following applies: 3 μM NECA, rolipram. The method in brief: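 Heparinised human whole blood pre-incubated 20 min at 37 °C with serially diluted A2a antagonists plus rolipram, then stimulated 60 min with 3 μM NECA (final). After fixation and red-cell lysis, white cells were permeabilized and stained for phospho-CREB and CD8; pCREB in CD8+ T cells measured by flow cytometry.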

The test system of experiment [6] is immature monocyte-derived dendritic cells (MoDC). In words: MoDC pCREB assay. The format is cell-based, human. The settings on record: Homo sapiens, Dendritic cell; pCREB in immature MoDC, 1 μM NECA, rolipram. The method in brief:
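Human CD14+ monocytes differentiated 5 days into immature MoDC, pre-incubated 15 min at 37 °C with antagonist plus rolipram, then stimulated with 1 μM NECA for 45 min at 37 °C. Phospho-CREB measured by flow cytometry in gated CD209+/CD86− low cells; IC50 from the inflection point of a sigmoidal curve.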

Chain of human Adenosine A1 receptor (P30542 whole entry): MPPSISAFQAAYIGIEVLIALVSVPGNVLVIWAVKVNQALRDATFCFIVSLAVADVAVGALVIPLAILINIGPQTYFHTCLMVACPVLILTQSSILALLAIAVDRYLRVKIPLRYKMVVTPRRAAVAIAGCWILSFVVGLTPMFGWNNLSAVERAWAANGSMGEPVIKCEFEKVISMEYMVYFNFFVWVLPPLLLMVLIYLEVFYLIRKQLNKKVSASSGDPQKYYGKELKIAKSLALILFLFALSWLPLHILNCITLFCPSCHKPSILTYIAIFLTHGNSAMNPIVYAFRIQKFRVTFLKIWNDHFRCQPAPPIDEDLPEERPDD
Chain of human Adenosine A2a receptor (P29274 whole entry): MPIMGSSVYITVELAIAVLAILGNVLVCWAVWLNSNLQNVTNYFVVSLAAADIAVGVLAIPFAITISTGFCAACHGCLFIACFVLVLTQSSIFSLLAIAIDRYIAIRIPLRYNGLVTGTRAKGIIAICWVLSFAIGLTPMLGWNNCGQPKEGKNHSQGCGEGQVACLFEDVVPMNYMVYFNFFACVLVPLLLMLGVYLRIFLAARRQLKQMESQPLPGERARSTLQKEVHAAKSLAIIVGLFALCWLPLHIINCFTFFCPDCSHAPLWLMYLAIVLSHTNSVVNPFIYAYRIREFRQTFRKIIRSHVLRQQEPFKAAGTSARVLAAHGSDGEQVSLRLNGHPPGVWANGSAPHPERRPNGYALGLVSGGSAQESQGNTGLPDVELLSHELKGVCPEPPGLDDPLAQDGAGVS
Chain of human Adenosine A2b receptor (P29275 whole entry): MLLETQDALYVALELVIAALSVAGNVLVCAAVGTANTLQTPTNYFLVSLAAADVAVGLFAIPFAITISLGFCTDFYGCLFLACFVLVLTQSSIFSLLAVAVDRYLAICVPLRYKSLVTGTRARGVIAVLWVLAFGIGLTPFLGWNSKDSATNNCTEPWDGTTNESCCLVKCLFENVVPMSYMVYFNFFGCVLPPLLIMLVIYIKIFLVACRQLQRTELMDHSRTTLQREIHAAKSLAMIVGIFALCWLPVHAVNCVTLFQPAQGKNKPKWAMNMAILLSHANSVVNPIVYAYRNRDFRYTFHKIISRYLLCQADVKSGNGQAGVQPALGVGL

On to `Cc1cc(-c2sc(NC(=O)N3CCN(C)CC3)nc2-c2cccc(C#N)c2)cc(Cl)n1` [Example 3.6], for which the inhibition constant (Ki) (in general, a measure of affinity in units of concentration, obtained from inhibition or displacement) was found to be 88 nM in experiment [1], 0.64 nM in experiment [2], 1.5 nM in experiment [3] and 481 nM in experiment [4]. The half-inhibitory concentration (IC50) – broadly, the point on the concentration scale where inhibition reaches its midpoint – in the experiment with human PBMCs turned out to be 7.5 nM; in experiment [5] it was 990 nM; in experiment [6], 51 nM.

`Cc1cc(-c2sc(NC(=O)N3CC(C)(C#N)C3)nc2-c2cccc(C#N)c2)cc(C)n1` [Example 6.7, 3-Cyano-N-[4-(3-cyanophenyl)-5-(2,6-dimethyl-4-pyridyl)thiazol-2-yl]-3-methyl-azetidine-1-carboxamide]: the Ki in experiment [1] is 14 nM; in experiment [2] it was 0.11 nM; in experiment [3], 0.7 nM; in experiment [4], 281 nM. Moreover, the IC50 with human PBMCs came to 0.8 nM; in experiment [5], 20 nM; in experiment [6], 7 nM.

As to `Cc1cc(-c2sc(NC(=O)N3CCOC[C@H]3C)nc2-c2cccc(C#N)c2)cc(C)n1` [Example 6.74, (3R)-N-[4-(3-Cyanophenyl)-5-(2,6-dimethyl-4-pyridyl)thiazol-2-yl]-3-methyl-morpholine-4-carboxamide], the Ki in experiment [1] was determined as 23 nM; in experiment [2] it was 0.63 nM; in experiment [3], 1.9 nM; in experiment [4], 219 nM. Further, the IC50 with human PBMCs was determined as 5.6 nM; in experiment [5], 240 nM; in experiment [6] it was 1 nM.

Regarding `Cc1cc(-c2sc(NC(=O)N3CC(C)(O)C3)nc2-c2cccc(C#N)c2)cc(C)n1` [Example 4.9, N-[4-(3-Cyanophenyl)-5-(2,6-dimethyl-4-pyridyl)thiazol-2-yl]-3-hydroxy-3-methyl-azetidine-1-carboxamide], the Ki was found to be 9 nM in experiment [1], 0.14 nM in experiment [2], 1.5 nM in experiment [3] and 133 nM in experiment [4]. Besides, the figures for the IC50 (in the experiment on human PBMCs; in experiment [5]; in experiment [6]) were 3.2 nM, 50 nM and 26 nM, respectively.

Regarding `Cc1cc(-c2sc(NC(=O)N3CC4(COC4)C3)nc2-c2cccc(C#N)c2)cc(C)n1` [Example 4.12, N-[4-(3-Cyanophenyl)-5-(2,6-dimethyl-4-pyridyl)thiazol-2-yl]-2-oxa-6-azaspiro[3.3]heptane-6-carboxamide], the inhibition constant (Ki) turned out to be 31 nM in experiment [1], 0.26 nM in experiment [2], 1.1 nM in experiment [3] and 389 nM in experiment [4]. In addition, the half-maximal inhibitory concentration (IC50) was determined as 2 nM with human PBMCs, 50 nM in experiment [5] and 18 nM in experiment [6].

Turning to `Cc1cc(-c2sc(NC(=O)N3CC4(C3)CS(=O)(=O)C4)nc2-c2cccc(C#N)c2)cc(C)n1` [Example 6.46, N-[4-(3-Cyanophenyl)-5-(2,6-dimethyl-4-pyridyl)thiazol-2-yl]-2,2-dioxo-2λ^∧{6}-thia-6-azaspiro[3.3]heptane-6-carboxamide], the Ki in experiment [1] is 113 nM; in experiment [2] it was 2.06 nM; in experiment [3], 1.9 nM; in experiment [4] it was 235 nM. In addition, the half-maximal inhibitory concentration (IC50) in the experiment with human PBMCs was determined as 15.1 nM; in experiment [5], 360 nM; in experiment [6], 38 nM.

Turning to `Cc1cc(-c2sc(NC(=O)N3CC4(CCN(C)C4=O)C3)nc2-c2cccc(C#N)c2)cc(C)n1` [Example 6.92, N-[4-(3-Cyanophenyl)-5-(2,6-dimethyl-4-pyridyl)thiazol-2-yl]-6-methyl-5-oxo-2,6-diazaspiro[3.4]octane-2-carboxamide], the inhibition constant Ki in experiment [1] was 66 nM; in experiment [2], 0.39 nM; in experiment [3], 2.6 nM; in experiment [4] it was 98 nM. Besides, the half-inhibitory concentration (IC50) in the experiment on human PBMCs was 1.2 nM; in experiment [5] it was 30 nM; in experiment [6], 11 nM.
